Results as given in ChEMBL document CHEMBL5154760, “Metabolism guided optimization of peptidomimetics as non-covalent proteasome inhibitors for cancer treatment” (Eur J Med Chem, 2022).
Calls of active or inactive are those of the source. No cut-off for these calls is given here.

Experiments:
[1] = target: 20S proteasome; assay: Inhibition of chymotrypsin-like activity of human 20S proteasome using Suc-Leu Leu-Val-Tyr-AMC as substrate preincubated for 15 mins followed by substrate addition measured by fluorescence assay; format: protein-complex assay
[2] = tested on: RPMI-8226; assay: Antiproliferative activity against human RPMI-8226 cells after 72 hrs by MTS assay; format: functional, cell-based; conditions: RPMI-8226, 72 h
[3] = tested on: MM1.S; assay: Antiproliferative activity against human MM1.S cells after 72 hrs by MTS assay; format: functional, cell-based
[4] = tested on: MV4-11; assay: Antiproliferative activity against human MV4-11 cells after 72 hrs by MTS assay; format: functional, cell-based; conditions: MV4-11, 72 h
[5] = target: 20S proteasome (Homo sapiens) (UniProt P49721+P20618+P28074+P28062+P28065+P28072+P25786+P25787+P25788+P25789+P28066+P60900+O14818+Q8TAA3+P40306+A5LHX3+P49720+P28070+Q99436); assay: Inhibition of chymotrypsin-like activity of 20S proteasome in human MM1.S cells assessed as accumulation of polyubiquitinated proteins at 10 to 1000 nM and measured by Western blot analysis; format: cell-based; conditions: dose 10-1000 nM
[6] = Stability of the compound in mouse blood assessed as half-life measured by LC-MS/MS analysis; format: ADME, tissue-based
[7] = In vivo inhibition of chymotrypsin-like activity of 20S proteasome in ICR mouse at 5 mg/kg, iv; format: functional

| Compound | IC50 [1] | IC50 [2] | IC50 [3] | IC50 [4] | also measured |
| --- | --- | --- | --- | --- | --- |
| C[C@H](c1ccccc1)N(C)C(=O)[C@H](CCc1ccccc1)NC(=O)[C@H](CC(=O)NCC(C)(C)C)NC(=O)N1CCC(C(=O)N(C)c2cccnc2)CC1 | > 10000 nM |  |  |  |  |
| C[C@H](NC(=O)[C@H](CCc1ccccc1)NC(=O)[C@H](CC(=O)NCC(C)(C)C)NC(=O)N1CCC(C(=O)N(C)c2cccnc2)CC1)c1ccccc1 | > 10000 nM |  |  |  |  |
| CCN(C(=O)C1CCN(C(=O)N[C@@H](CC(=O)NCC(C)(C)C)C(=O)N[C@@H](CCc2ccccc2)C(=O)N[C@@H]2CCCc3ccccc32)CC1)c1ccccc1 | 8.39 nM | 15.3 nM | 9.07 nM | 2.46 nM | inhibition [5]: Active; half-life [6]: 5.49 h; inhibition in vivo at 5 mg/kg [7]: 50% |
| CN(C(=O)C1CCN(C(=O)N[C@@H](CC(=O)NCC(C)(C)C)C(=O)N[C@@H](CCc2ccccc2)C(=O)N[C@@H]2CCCc3ccccc32)CC1)c1cccnc1 | 8.59 nM | 81.7 nM | 54.2 nM | 12 nM |  |
| C[C@@H](c1ccccc1)N(C)C(=O)[C@H](CCc1ccccc1)NC(=O)[C@H](CC(=O)NCC(C)(C)C)NC(=O)N1CCC(C(=O)Nc2cccnc2)CC1 | > 10000 nM |  |  |  |  |
| CN(Cc1ccccc1Cl)C(=O)[C@H](CCc1ccccc1)NC(=O)[C@H](CC(=O)NCC(C)(C)C)NC(=O)N1CCC(C(=O)Nc2cccnc2)CC1 | 1740 nM |  |  |  |  |
| CN(C(=O)C1CCN(C(=O)N[C@@H](CC(=O)NCC(C)(C)C)C(=O)N[C@@H](CCc2ccccc2)C(=O)N[C@@H]2CCCc3ccccc32)CC1)c1ccccc1 | 9.31 nM | 20.7 nM | 8.82 nM | 2.74 nM | inhibition [5]: Active; half-life [6]: 2.46 h |
| CN(C(=O)C1CCN(C(=O)N[C@@H](CC(=O)NCC(C)(C)C)C(=O)N[C@@H](CCc2ccccc2)C(=O)N2CCc3ccccc3C2)CC1)c1cccnc1 | > 10000 nM |  |  |  |  |
| CN(C(=O)C1CCN(C(=O)N[C@@H](CC(=O)NCC(C)(C)C)C(=O)N[C@@H](CCc2ccccc2)C(=O)N[C@@H]2CCCc3ccccc32)CC1)c1ccc(Cl)cc1 | 6.95 nM | 20.8 nM | 26.9 nM | 4.06 nM |  |
| C[C@@H](c1ccccc1)N(C)C(=O)[C@H](CCc1ccccc1)NC(=O)[C@H](CC(=O)NCC(C)(C)C)NC(=O)N1CCC(C(=O)N(C)c2cccnc2)CC1 | > 10000 nM |  |  |  |  |
| CN(C(=O)C1CCN(C(=O)N[C@@H](CC(=O)NCC(C)(C)C)C(=O)N[C@@H](CCc2ccccc2)C(=O)N[C@H]2CCCc3ccccc32)CC1)c1cccnc1 | > 10000 nM |  |  |  |  |
| CC(C)(C)CNC(=O)C[C@H](NC(=O)N1CCN(C(=O)Nc2ccc(Cl)cc2)CC1)C(=O)N[C@@H](CCc1ccccc1)C(=O)N[C@@H]1CCCc2ccccc21 | 23.7 nM |  |  |  |  |
| CC(C)(C)CNC(=O)C[C@H](NC(=O)N1CCN(C(=O)c2cccnc2)CC1)C(=O)N[C@@H](CCc1ccccc1)C(=O)N[C@@H]1CCCc2ccccc21 | 25 nM |  |  |  |  |
| CN(C(=O)C1CCN(C(=O)N[C@@H](CC(=O)NCC(C)(C)C)C(=O)N[C@@H](CCc2ccccc2)C(=O)N[C@@H]2CCCc3ccccc32)CC1)c1cccc(Cl)c1 | 22.6 nM |  |  |  |  |
| CN(C(=O)C1CCN(C(=O)N[C@@H](CC(=O)NCC(C)(C)C)C(=O)N[C@@H](CCc2ccccc2)C(=O)N[C@@H]2CCCc3ccccc32)CC1)c1ccncc1 | 9.26 nM | > 100 nM | 84 nM | 51.7 nM |  |
| C[C@@H](NC(=O)[C@H](CCc1ccccc1)NC(=O)[C@H](CC(=O)NCC(C)(C)C)NC(=O)N1CCC(C(=O)Nc2cccnc2)CC1)c1ccccc1 | 20.3 nM |  |  |  |  |
| CN(C(=O)C1CCN(C(=O)N[C@@H](CC(=O)NCC(C)(C)C)C(=O)N[C@@H](CCc2ccccc2)C(=O)N[C@@H]2CCCc3ccccc32)CC1)c1nccs1 | 3.43 nM | 12.1 nM | 8.36 nM | 1.57 nM | inhibition [5]: Active; half-life [6]: 1.4 h; inhibition in vivo at 5 mg/kg [7]: 50% |
| CC(C)(C)CNC(=O)C[C@H](NC(=O)N1CCC(C(=O)N2CCc3ccccc32)CC1)C(=O)N[C@@H](CCc1ccccc1)C(=O)N[C@@H]1CCCc2ccccc21 | 7.24 nM | 19.9 nM | 16.9 nM | 4.6 nM |  |
| CN(C(=O)C1CCN(C(=O)N[C@@H](CC(=O)NCC(C)(C)C)C(=O)N[C@@H](CCc2ccccc2)C(=O)N[C@@H]2CCCc3ccccc32)CC1)c1ccccn1 | 8.92 nM | 33.7 nM | 20.6 nM | 4.85 nM |  |
| CC(C)(C)CNC(=O)C[C@H](NC(=O)N1CCC(C(=O)Nc2cccnc2)CC1)C(=O)N[C@@H](CCc1ccccc1)C(=O)N[C@H]1CCCc2ccccc21 | 4480 nM |  |  |  |  |
| CC(C)(C)CNC(=O)C[C@H](NC(=O)N1CCC(C(=O)N2CCCc3ccccc32)CC1)C(=O)N[C@@H](CCc1ccccc1)C(=O)N[C@@H]1CCCc2ccccc21 | 8.09 nM | 24 nM | 12.4 nM | 4.93 nM |  |

More lines, main results first:

| IC50 [1] | IC50 [2] | IC50 [3] | IC50 [4] | Compound | also measured |
| --- | --- | --- | --- | --- | --- |
| 5.15 nM | 60.4 nM | 33.5 nM | 7.65 nM | CN(C(=O)c1cccnc1)C1CCN(C(=O)N[C@@H](CC(=O)NCC(C)(C)C)C(=O)N[C@@H](CCc2ccccc2)C(=O)N[C@@H]2CCCc3ccccc32)CC1 |  |
| 25 nM |  |  |  | COc1ccc(N(C)C(=O)C2CCN(C(=O)N[C@@H](CC(=O)NCC(C)(C)C)C(=O)N[C@@H](CCc3ccccc3)C(=O)N[C@@H]3CCCc4ccccc43)CC2)cc1 |  |
| 41.2 nM |  |  |  | CC(C)(C)CNC(=O)C[C@H](NC(=O)N1CCC(NC(=O)Nc2ccc(Cl)cc2)CC1)C(=O)N[C@@H](CCc1ccccc1)C(=O)N[C@@H]1CCCc2ccccc21 |  |
| > 10000 nM |  |  |  | CN(Cc1ccccc1Cl)C(=O)[C@H](CCc1ccccc1)NC(=O)[C@H](CC(=O)NCC(C)(C)C)NC(=O)N1CCC(C(=O)N(C)c2cccnc2)CC1 |  |
| 99.8 nM |  |  |  | C[C@@H](NC(=O)[C@H](CCc1ccccc1)NC(=O)[C@H](CC(=O)NCC(C)(C)C)NC(=O)N1CCC(C(=O)N(C)c2cccnc2)CC1)c1ccccc1 |  |
| 4.03 nM | 40.7 nM | 35.1 nM | 6.83 nM | CC(C)(C)CNC(=O)C[C@H](NC(=O)N1CCC(C(=O)Nc2cccnc2)CC1)C(=O)N[C@@H](CCc1ccccc1)C(=O)N[C@@H]1CCCc2ccccc21 |  |
| 9.38 nM | 26.2 nM | 17.7 nM | 4.87 nM | CN(C(=O)C1CCN(C(=O)N[C@@H](CC(=O)NCC(C)(C)C)C(=O)N[C@@H](CCc2ccccc2)C(=O)N[C@@H]2CCCc3ccccc32)CC1)c1ccc(F)cc1 |  |
| 21.6 nM |  |  |  | CN(C(=O)C1CCN(C(=O)N[C@@H](CC(=O)NCC(C)(C)C)C(=O)N[C@@H](CCc2ccccc2)C(=O)N[C@@H]2CCCc3ccccc32)CC1)c1ccccc1Cl |  |
| 1590 nM |  |  |  | CC(C)(C)CNC(=O)C[C@H](NC(=O)N1CCC(C(=O)Nc2cccnc2)CC1)C(=O)N[C@@H](CCc1ccccc1)C(=O)N1CCc2ccccc2C1 |  |
| > 10000 nM |  |  |  | C[C@H](NC(=O)[C@H](CCc1ccccc1)NC(=O)[C@H](CC(=O)NCC(C)(C)C)NC(=O)N1CCC(C(=O)Nc2cccnc2)CC1)c1ccccc1 |  |
|  | 6.35 nM | 9.15 nM | 0.983 nM | CC(C)C[C@H](NC(=O)[C@H](CCc1ccccc1)NC(=O)CN1CCOCC1)C(=O)N[C@@H](Cc1ccccc1)C(=O)N[C@@H](CC(C)C)C(=O)[C@]1(C)CO1 |  |
| > 10000 nM |  |  |  | CC(C)(C)CNC(=O)C[C@H](NC(=O)N1CCC(C(=O)Nc2cnccn2)CC1)C(=O)N[C@@H](CCc1ccccc1)C(=O)N1CCc2ccccc2C1 |  |
| 0.92 nM |  |  |  | CC(C)(C)CNC(=O)C[C@H](NC(=O)N1CCC(C(=O)Nc2nccs2)CC1)C(=O)N[C@@H](CCc1ccccc1)C(=O)NCc1ccccc1Cl | half-life [6]: 0.613 h |
